Test results as given in US6447749B1, “Perfluoro-alkyl containing dye molecules and galencial formulations” (Schering Aktiengesellschaft, priority 1999, dated 2002).

Legend:
[1] = Photophysical characterization: absorption maxima and extinction coefficients (Lambda 2-spectrometer); assay type: physicochemical
Procedure: (§1) The determination of the absorption maxima and extinction coefficients was carried out with a Lambda 2-spectrometer (Perkin-Elmer Company). The fluorescence properties were determined on a SPEX-fluorolog (Instruments S. A. Company, photomultiplier Hamamatsu PM928, excitation 350W xenon lamp). the determination of the fluorescence quantum yield was carried out relative to indocyanine green (O=13% in DMSO) by excitation at 585 nm (dyes with p=2) or 685 nm (dyes with p=3), in each case of solutions of concentration 2 μM in dye, and correction with the spectral sensitivity of lamp and detector.

[2] = Photophysical characterization: fluorescence properties and fluorescence quantum yield (SPEX-fluorolog, relative to indocyanine green); assay type: physicochemical
Procedure: as §1

regional lymph nodes [3] = test: Interstitial near-infrared lymphography of guinea pigs; assay type: in vivo; details: guinea pig, formulation 5 mol % of dye 8/95 mol % Gd complex, interstitial/intracutaneous, 0.3 μmol/kg of 8
Procedure: The imaging properties of the formulations according to the invention were studied in vivo in guinea pigs. […] The fluorescence of the substances was stimulated by irradiation of the animals with near-infrared light of wavelength 740 nm, which was produced with an Nd:YAG laser. The fluorescence radiation was detected at a wavelength of >800 nm by an intensified CCD-camera, and the fluorescence images were stored digitally.
0.1 ml of a stock solution with 1 mmol/L of 8 was injected into a skin fold between the toes of the right rear extremity, and the final concentration was 0.3 μmol/kg of 8.

regional lymph nodes [4] = test: Coloring of regional lymph nodes after interstitial administration; assay type: in vivo; details: guinea pig; formulation 5 mol % of dye 8/95 mol % Gd complex; after interstitial/intracutaneous administration, lymph nodes prepared ex vivo; listed as 8, sodium salt
Procedure: After the interstitial near-infrared lymphography was completed, the regional lymph nodes were prepared in the area of the administration site. […] This coloring can be used for the intraoperative diagnosis for the identification of the draining lymph nodes of a certain tissue area and for differentiating the lymph nodes from the surrounding tissue.

popliteal lymph node = test: Localization in lymph nodes by fluorescence microscopy on frozen sections; assay type: in vivo; details: guinea pig popliteal lymph node; four hours after interstitial administration; formulation 5 mol % of dye 8/95 mol % Gd complex; untreated animals no fluorescence
Procedure: The localization of the formulations according to the invention in lymph nodes was studied by fluorescence microscopy on frozen sections of the lymph nodes. In this respect, the lymph nodes were prepared after the lymphography and deep-frozen at −80° C. Sections with a 5 μm thickness were produced on a freezing microtome. The evaluation was carried out on a Zeiss Axiovert 135-fluorescence microscope, which was equipped with a Cy 7-(excitation filter HQ710/70 nm, emission filter 810/90 nm, beam splitter 750 nm LP). From all the preparations, white light and fluorescence images were recorded with a CCD camera (Princeton Instruments RTE/CCD-576) and stored digitally.
Images of a cryosection from a popliteal lymph node of an untreated guinea pig in bright field (3c) and in near-infrared-fluorescence (3d) are shown for comparison.

lymph nodes [5] = test: Fluorescence coloring of lymph nodes after intravenous administration; assay type: in vivo; details: rat; 5 hours after intravenous administration; 0.2 ml of 0.5 mmol/L dye 8 and 9.5 mmol/L Gd complex; excitation 740 nm, detection >800 nm
Procedure: From the substance, 0.2 ml of a solution that contained 0.5 mmol/L of dye 8 and 9.5 mmol/L of 10-[1-methyl-2-oxo-3-aza-5-oxo-5-{4-perfluorooctylsulfonyl-piperazin-1-yl}-pentyl]-1,4,7-tris(carboxymethyl)-1,4,7,10-tetraazacyclododecane, was administered intravenously in a caudal vein of the rat. Five hours after administration, the lymph nodes were prepared and a fluorescence image was recorded. The fluorescence of the substances was stimulated by irradiation of the lymph nodes with near-infrared light of wavelength 740 nm, which was produced with an Nd:YAG laser. The fluorescence radiation was detected at a wavelength of >800 nm by an intensified CCD-camera, and the fluorescence images were stored digitally.

lymph nodes [6] = test: Fluorescence coloring of lymph nodes after interstitial administration (monosaccharide formulation); assay type: in vivo; details: 5 mol % of dye 8 and 95 mol % mannopyranosyl perfluoroalkyl amide
Procedure: From the substance, 0.1 ml of a solution that contained 1 mmol/L of dye 8 and 19 mmol/L of 6-[1-O-α-D-mannopyranosyl]-hexanoic acid N-(3-oxa-1H,1H,2H,2H,4H,4H,5H,5H-perfluorotridecyl)-amide was administered interstitially in a skin fold between the toes of the right rear extremity of the animal. Five hours after administration, the lymph nodes of the right and left sides of the body were prepared, and a fluorescence image was recorded. The fluorescence of the substances was stimulated by irradiation of the lymph nodes with near-infrared light of wavelength 740 nm, which was produced with an Nd:YAG laser. The fluorescence radiation was detected at a wavelength of >800 nm by an intensified CCD-camera, and the fluorescence images were stored digitally.

[7] = dyes 7-14 table, formulation with Gd-complex perfluoroalkyl derivative (WO 97/26017 Ex. 33), 5 mol % of dye
[8] = formulation with Gd-complex perfluoroalkyl derivative (WO 97/26017 Ex. 33), 1 mol % of dye
[9] = formulation with Gd-complex perfluoroalkyl derivative (WO 97/26017 Ex. 33), 2 mol % of dye
[10] = formulation with Gd-complex perfluoroalkyl derivative (WO 97/26017 Ex. 33), 5 mol % of dye
[11] = formulation with Gd-complex perfluoroalkyl derivative (WO 97/26017 Ex. 33), 10 mol % of dye
[12] = three-component formulation: 5 mol % of dye, 0 mol % of Gd complex, 95 mol % of monosaccharide
[13] = three-component formulation: 5 mol % of dye, 10 mol % of Gd complex, 85 mol % of monosaccharide
[14] = three-component formulation: 5 mol % of dye, 30 mol % of Gd complex, 65 mol % of monosaccharide
[15] = three-component formulation: 5 mol % of dye, 50 mol % of Gd complex, 45 mol % of monosaccharide
[16] = three-component formulation: 5 mol % of dye, 70 mol % of Gd complex, 25 mol % of monosaccharide
[17] = three-component formulation: 5 mol % of dye, 90 mol % of Gd complex, 5 mol % of monosaccharide
[18] = five hours after interstitial administration (right rear extremity)

Absorption max. [1, 7]: 753 nm
Extinction coefficient [1, 7]: 120,800 L mol^−1 cm^−1
Absorption max. [1, 8]: 755 nm
Extinction coefficient [1, 8]: 150,500 L mol^−1 cm^−1
Absorption max. [1, 9]: 755 nm
Extinction coefficient [1, 9]: 148,800 L mol^−1 cm^−1
Absorption max. [1, 10]: 753 nm
Extinction coefficient [1, 10]: 120,800 L mol^−1 cm^−1
Absorption max. [1, 11]: 751 nm
Extinction coefficient [1, 11]: 108,500 L mol^−1 cm^−1
Absorption maximum [1, 12]: 760 nm
Extinction coefficient [1, 12]: 90500 L/mol/cm
Absorption maximum [1, 13]: 760 nm
Extinction coefficient [1, 13]: 102700 L/mol/cm
Absorption maximum [1, 14]: 760 nm
Extinction coefficient [1, 14]: 107900 L/mol/cm
Absorption maximum [1, 15]: 756 nm
Extinction coefficient [1, 15]: 108700 L/mol/cm
Absorption maximum [1, 16]: 756 nm
Extinction coefficient [1, 16]: 111100 L/mol/cm
Absorption maximum [1, 17]: 755 nm
Extinction coefficient [1, 17]: 112500 L/mol/cm
Fluorescence max. [2, 7]: 788 nm
Fluorescence quantum yield ([2]; dyes 7-14 table, formulation with Gd-complex perfluoroalkyl derivative (WO 97/26017 Ex. 33), 5 mol % of dye, 2 μM in dye): 0.14
Fluorescence max. [2, 8]: 784 nm
Fluorescence quantum yield ([2]; formulation with Gd-complex perfluoroalkyl derivative (WO 97/26017 Ex. 33), 1 mol % of dye, 2 μM in dye): 0.23
Fluorescence max. [2, 9]: 785 nm
Fluorescence quantum yield ([2]; formulation with Gd-complex perfluoroalkyl derivative (WO 97/26017 Ex. 33), 2 mol % of dye, 2 μM in dye): 0.23
Fluorescence max. [2, 10]: 788 nm
Fluorescence quantum yield ([2]; formulation with Gd-complex perfluoroalkyl derivative (WO 97/26017 Ex. 33), 5 mol % of dye, 2 μM in dye): 0.14
Fluorescence max. [2, 11]: 790 nm
Fluorescence quantum yield ([2]; formulation with Gd-complex perfluoroalkyl derivative (WO 97/26017 Ex. 33), 10 mol % of dye, 2 μM in dye): 0.03
Fluorescence maximum [2, 12]: 800 nm
Fluorescence quantum yield [2, 12]: 0.16
Fluorescence maximum [2, 13]: 800 nm
Fluorescence quantum yield [2, 13]: 0.11
Fluorescence maximum [2, 14]: 800 nm
Fluorescence quantum yield [2, 14]: 0.14
Fluorescence maximum [2, 15]: 798 nm
Fluorescence quantum yield [2, 15]: 0.26
Fluorescence maximum [2, 16]: 794 nm
Fluorescence quantum yield [2, 16]: 0.18
Fluorescence maximum [2, 17]: 793 nm
Fluorescence quantum yield [2, 17]: 0.13
SMILES: CC1(C)C(=CC=CC=CC=CC2=[N+](CCCCS(=O)(=O)[O-])c3ccc(C(=O)N(CCOCCC(F)(F)C(F)(F)C(F)(F)C(F)(F)C(F)(F)C(F)(F)C(F)(F)C(F)(F)F)CC(O)CO)cc3C2(C)C)N(CCCCS(=O)(=O)[O-])c2ccccc21.[Na+] (stereo not shown) [Dye 10, 5-{N-[2-(3,3,4,4,5,5,6,6,7,7,8,8,9,9,10,10,10-heptadecafluorodecyloxy)ethyl]-N-(2,3-dihydroxypropyl)aminocarbonyl}-2-{7-[1,3-dihydro-3,3-dimethyl-1-(4-sulfobutyl)-2H-indol-2-ylidene]-1,3,5-heptatrienyl}-3,3-dimethyl-1-(4-sulfobutyl)-3H-indolium, internal salt, sodium salt]
fluorescence signal at the injection site (regional lymph nodes [3]; abdominal view, 120 minutes after administration): strong fluorescence signal
fluorescence signal at the injection site (regional lymph nodes [3]; right lateral view, 117 minutes after administration): strong fluorescence signal
coloring of regional (inguinal) lymph nodes (regional lymph nodes [4]): clearly visible green-coloring
near-infrared fluorescence of lymph node frozen sections (popliteal lymph node): pronounced fluorescence
fluorescence signal of axillary, inguinal and popliteal lymph nodes (lymph nodes [5]): All lymph nodes showed a clear fluorescence signal
fluorescence signal of lymph nodes, left side of the body (lymph nodes [6]; [18]): no lymph nodes of the left side of the body
fluorescence signal of lymph nodes, right (administered) side of the body (lymph nodes [6]; [18]): Most lymph nodes of the right (administered) side of the body showed a fluorescence signal
coloring of the fluorescence-labeled lymph nodes (lymph nodes [6]; five hours after interstitial administration): greenish-colored
